Literature values, collected in patent US20260216162A1, “SELECTIVE FIASMA TREATMENT” (VALO HEALTH, INC., priority 2023, published 2026).

Assays:
[1] = system: acid sphyingomyelinase (ASMase); conditions: final concentration of 10 µM, 30 minutes, 37° C.; normalized to control cells treated with the solvent alone

| Compound | Log P | Residual ASMase Activity (%) [1] [%] |
| --- | --- | --- |
| Fc1ccc([C@@H]2CCNC[C@H]2COc2ccc3c(c2)OCO3)cc1 [Paroxetine] | 3.9 | 31.7 |
| CNCCC(Oc1ccc(C(F)(F)F)cc1)c1ccccc1 (stereo not drawn) [Fluoxetine] | – | 13.0 |
